# “Also recorded” adds a separate entry of the source. Like-named read-outs stand apart in the source and are kept apart here.
# Experiments:
# [1] = biological target: T1, amyloid-β (1–42) (Aβ42) (Homo sapiens, UniProt P05067); test: Single molecule force spectroscopy / dynamic force spectroscopy (AFM) of Aβ-Aβ dimer dissociation, Friddle-De Yoreo model; assay type: binding; conditions: for change of Aβ-Aβ self-affinity / dimer dissociation constant by metal ion: 20 nM (nanomolar) metal ion vs aqueous HEPES buffer control; for change of association rate (kon) of Aβ-Aβ vs aqueous control: 20 nM metal ion, kon = koff/Kd; for Kd: read-out: chemical dissociation constant, Kd
# T1 construct: purchased rPeptide (Bogart USA)
# Excerpt: In this work we used single molecule force spectroscopy (SMFS) to further elucidate the mechanism of the very initial stage of amyloid aggregation—the dimerization of two peptides. SMFS is a nanoscale technique whereby an atomic force microscopy (AFM) tip is used to probe the unbinding of two molecules of interest—one bound to the surface, the other to the tip. When AFM tip is brought to the surface the binding between two Aβ monomers occur and when the tip is retracted the unbinding forces between two monomers are measured. To extract kinetic and thermodynamic parameters governing the system, the retraction velocity of the tip is varied. This iteration of SMFS is referred to as dynamic force spectroscopy (DFS).
# We prepared our experiments in accordance with our previous force spectroscopy experiments, of which the methods are detailed extensively in [23]. Briefly, Veeco MLCT SiNi AFM cantilever were cleaned by soaking in ethanol and exposing to UV light for 30 minutes. […] The mica and cantilevers were then soaked for 3 hours in a solution of 3400 MW NHS-PEG-MAL (Laysan Bio, Alabaster GA) solution. […] The surface of the cantilever tip and mica surface were soaked in the Aβ solution for 30 minutes. Following rinsing, unreacted maleimide groups were quenched with b-merceptoethanol. Tips and mica were then rinsed and stored in HEPES buffer.
# Typical cantilever spring constants were between 8 and 120 mN/m but varied with each individual experiment. Spring constants were measured using Hutter’s thermal noise method. A series of force curves were taken with an approach and retract velocity varying between 50 and 10,000 nm/s resulting in loading rates between 0.3 and 300 nN/s. Following the collection of an Aβ42 data set in HEPES buffer, a 20 nM metal ionic solution (Cu^2+ or Zn^2+) in HEPES buffer was added to the liquid cell of the AFM and additional force curves were collected for comparison.
# JPK data analysis software was used to analyze force curves. […] The force curves were smoothed, the x-axis leveled, both axes set to 0, and the force curve corrected for cantilever bending to obtain tip-sample separation, z. A WLC fit was obtained for each force curve while rupture force and contour length data were recorded. Data was sorted in order of rupture force and the highest rupture force data were eliminated using Poisson statistics to eliminate force curves that were likely the result of simultaneous multiple unbinding events.
# Loading rates were corrected to account for the effect of the PEG linker. We fit the Friddle-De Yoreo reversible binding equation to the entirety of the dataset (comprised of the rupture force and corrected loading rate of each force curve) using a Levenberg-Marquardt best fit algorithm in Origin 9.0 graphing software. For pooled datasets, we used the mean spring constant of the cantilevers used in the experiments. We extracted the equilibrium force, feq, the thermal scaling factor, fβ, and the kinetic off rate, koff(feq) at the equilibrium force as well as standard errors from the dataset using the graphing software. These parameters were then used to calculate parameters ΔG (the difference in free energy between the bound and free states), xβ (the width of the energy barrier), koff (the kinetic dissociation, or off- rate), and Kd (the dissociation constant) using the equations used in [34, 35].
# Analysis of variance (ANOVA) testing was conducted on ΔG, xβ, koff, and Kd. Following the ANOVA test, a post hoc Welsh’s t-test was conducted to compare the parameters for the aqueous experiments compared to the copper experiments and for the aqueous environment experiments compared to the zinc experiments.
# [2] = biological target: Aβ; conditions: cited from earlier work
# Excerpt: The role of metal ions on amyloid aggregation and toxicity has been studied extensively. […] Cu^2+ ions increase neurotoxicity by both accelerating amyloid aggregation and increasing oxidative stress. This increased propensity of Aβ to aggregate in a Cu^2+ rich environment has been attributed to Cu^2+ ions causing Aβ to move closer to its isoelectric point, thereby inducing aggregation. […] In this work, rather than determining the affinity of metal ions to the Aβ monomer, we calculated the self-affinity of two Aβ42 peptides in the presence of copper and zinc ions.
# [3] = test system: Aβ (1–42); conditions: with Cu^2+ ions; cited from earlier work
# Excerpt: Our previous results led us to hypothesize that since […] AD is largely a function of abnormal Aβ clearance, increased affinity of Aβ would make amyloid clearance considerably more problematic. In this work we used single molecule force spectroscopy (SMFS) to further elucidate the mechanism of the very initi ...
# [4] = test system: Aβ; conditions: cited from earlier work; remark: listed apart in the source
# Excerpt: Despite the well established effect ...
Compound,change of Aβ-Aβ self-affinity / dimer dissociation constant by metal ion [1],change of Aβ-Aβ self-affinity / dimer dissociation constant by metal ion ([1]; listed as zinc),change of association rate (kon) of Aβ-Aβ vs aqueous control [1],change of height of the energy barrier ([1]; with Zn^2+ 20 nM vs aqueous control),"ΔG (free energy difference between bound and unbound states) for Aβ-Aβ unbinding ([1]; aqueous HEPES 50 mM buffer, pH 7.4, 150 mM NaCl, no metal ion added) [kBT]","Kd ([1]; control, Aβ dimerization in HEPES buffer) [µM]",Kd ([1]; with 20 nM Cu^2+) [µM],ΔG (free energy difference between bound and unbound states) for Aβ-Aβ unbinding ([1]; with Cu^2+ [20nM] in HEPES buffer pH 7.4) [kBT],ΔG (free energy difference between bound and unbound states) for Aβ-Aβ unbinding ([1]; with Zn^2+ [20nM] in HEPES buffer pH 7.4) [kBT],change of Aβ-Aβ self-affinity / dimer dissociation constant by metal ion ([1]; listed as copper),Cu^2+-Aβ affinity [2],Cu^2+-Aβ affinity ([2]; listed as Copper),unbinding force between two Aβ (1–42) peptides [3],nucleation and elongation of amyloid fibril formation ([4]; substoichiometric concentrations of Cu^2+ ions),Aβ aggregation onset ([4]; trace concentrations of copper vs aqueous without metal ions)
"[Zn+2] [Zn^2+, zinc]",decreases the affinity of Aβ-Aβ interactions by an order of magnitude,decrease the affinity of Aβ-Aβ by an order of magnitude; also recorded: increases the dimer dissociation constant (which corresponds to a decreased monomer-monomer chemical affinity) by an order of magnitude,half an order of magnitude lower; also recorded: one-fifth of the control experiment,decreased the height of the energy barrier,–,–,–,–,–,–,–,–,–,–,–
amyloid-β (1–42) [Aβ-Aβ],–,–,–,–,7.83 ± 3.03,402,173,8.66 ± 1.62,4.89 ± 1.35,–,–,–,–,–,–
"[Cu+2] [Cu^2+, copper]",–,–,approximately half an order of magnitude higher; also recorded: approximately five times higher than the association rate in the control experiments,–,–,–,–,–,–,do not change the single molecule affinity of Aβ to another Aβ peptide in a statistically significant way; also recorded: does not change the dissociation constant by a statistically significant amount; also recorded: did not measure a significant effect,nanomolar to picomolar range,nano- to picomolar range,increased the unbinding force between two Aβ (1–42) peptides,induce acceleration in both the nucleation and elongation phases of amyloid fibril formation,Aβ begins to aggregate instantly compared to the characteristic lag period

# Reference: paper PMC4726707, “Effect of Copper and Zinc on the Single Molecule Self-Affinity of Alzheimer’s Amyloid-β Peptides” (PLoS ONE, 2016)
